The values that follow come from patent US12577228B2, “Dihydrocyclopenta-isoquinoline-sulfonamide derivatives compounds” (UCB Biopharma SRL, priority 2019, dated 2026).

The target in the experiment is T1, IgE-Tb / soluble IgE receptor FcεRIα with a Y131A mutation (Homo sapiens, UniProt P01854, N146Q/N252Q).
T1 construct: fused on or other part: Terbium chelate (LanthaScreen amine-reactive) on IgE-Fc; Alexa Fluor 488 hydrazide on the oxidised glycans of sFcεRIα; Both are labels and no part of the key
Kind of experiment: in vitro FRET assay: binding of IgE-Tb to receptor FcεRIα-Y131A-AF488 and its inhibition by compounds. To be noted: 5 nM IgE-Tb, 25 nM FcεRIα-Y131A-AF488, 2 hours at room temperature; read-out: FRET IC50 range.

T1 sequence (P01854 104-427 N146Q/N252Q): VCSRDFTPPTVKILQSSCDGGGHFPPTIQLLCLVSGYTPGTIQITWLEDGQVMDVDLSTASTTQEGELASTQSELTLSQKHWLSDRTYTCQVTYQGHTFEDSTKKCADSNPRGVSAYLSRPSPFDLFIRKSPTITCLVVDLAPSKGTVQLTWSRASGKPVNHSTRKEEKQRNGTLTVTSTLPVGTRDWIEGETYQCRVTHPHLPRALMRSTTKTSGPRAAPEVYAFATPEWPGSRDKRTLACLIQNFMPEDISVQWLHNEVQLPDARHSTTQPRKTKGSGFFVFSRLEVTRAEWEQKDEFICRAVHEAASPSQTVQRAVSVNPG
T1 sequence (P12319 26-201 Y156A partner): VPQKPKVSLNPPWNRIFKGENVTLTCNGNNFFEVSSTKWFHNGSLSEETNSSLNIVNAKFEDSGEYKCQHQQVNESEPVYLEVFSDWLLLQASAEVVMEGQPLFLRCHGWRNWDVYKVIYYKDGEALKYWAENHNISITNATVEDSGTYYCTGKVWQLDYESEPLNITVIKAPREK

Turning to `CC(C)CNS(=O)(=O)c1c2c(cc3cnc(C4CC4)cc13)C[C@H](Nc1nncn1-c1cccnc1)C2` (single isomer, unassigned) [Example 3, (7R*)-3-cyclopropyl-N-(2-methylpropyl)-7-[(4-pyridin-3-yl-1,2,4-triazol-3-yl)amino]-7,8-dihydro-6H-cyclopenta[g]isoquinoline-5-sulfonamide [* or S]], the IC50 lay in the range of 10 to 50 nM.

For the molecule `Cn1nnc(-c2ccc(N[C@@H]3Cc4cc5cnc(C6CC6)cc5c(S(=O)(=O)NC5CC(F)C5)c4C3)cn2)n1` (stereo partly drawn) [Example 1, (7R)-3-cyclopropyl-N-(3-fluorocyclobutyl)-7-[[6-(2-methyltetrazol-5-yl)pyridin-3-yl]amino]-7,8-dihydro-6H-cyclopenta[g]isoquinoline-5-sulfonamide], the IC50 lay in the range of 1 to 10 nM.

With `CC(C)CNS(=O)(=O)c1c2c(cc3cnc(C4CC4)cc13)CC1(c3ncc(-c4cccnc4)[nH]3)CC21` (stereo not drawn) [Example 2, 13-cyclopropyl-˜{N}-(2-methylpropyl)-6-(5-pyridin-3-yl-1˜{H}-imidazol-2-yl)-12-azatetracyclo[8.4.0.0^{3,8}.0^{4,6}]tetradeca-1,3 (8),9,11,13-pentaene-2-sulfonamide], the IC50 lay within 10 to 50 nM.

Consider `CC(C)CNS(=O)(=O)c1c2c(cc3cnc(C4CC4)cc13)CC(NC1=CC(=O)CC1)C2` (stereo not drawn) [Example 4, 3-cyclopropyl-N-(2-methylpropyl)-7-[(3-oxocyclopenten-1-yl)amino]-7,8-dihydro-6H-cyclopenta[g]isoquinoline-5-sulfonamide], for which the IC50 fell in the range of 10 to 50 nM.

For the molecule `CC(C)CNS(=O)(=O)c1c2c(cc3cnc(C4CC4)cc13)CC(Nc1nncn1CC1CC1)C2` (stereo not drawn) [Example 5, 3-cyclopropyl-7-[[4-(cyclopropylmethyl)-1,2,4-triazol-3-yl]amino]-N-(2-methylpropyl)-7,8-dihydro-6H-cyclopenta[g]isoquinoline-5-sulfonamide], the IC50 was 10 to 50 nM.

For the molecule `CC(C)(F)CNS(=O)(=O)c1c2c(cc3cnc(C4CC4)cc13)CC(NC(=O)c1cccnc1)C2` (stereo not drawn) [Example 6, N-[3-cyclopropyl-5-[(2-fluoro-2-methylpropyl)sulfamoyl]-7,8-dihydro-6H-cyclopenta[g]isoquinolin-7-yl]pyridine-3-carboxamide], the IC50 is 50 to 100 nM.

Consider `CC(C)(F)CNS(=O)(=O)c1c2c(cc3cnc(C4CC4)cc13)CC(NC1=CC(=O)CCC1)C2` (stereo not drawn) [Example 7, 3-cyclopropyl-N-(2-fluoro-2-methylpropyl)-7-[(3-oxocyclohexen-1-yl)amino]-7,8-dihydro-6H-cyclopenta[g]isoquinoline-5-sulfonamide], for which the IC50 fell in the range of 50 to 100 nM.

For the molecule `CCOC(=O)c1ncn([C@H]2Cc3cc4cnc(C5CC5)cc4c(S(=O)(=O)NCC(C)(C)F)c3C2)c1N` [Example 8, ethyl 5-amino-1-[(7S)-3-cyclopropyl-5-[(2-fluoro-2-methylpropyl)sulfamoyl]-7,8-dihydro-6H-cyclopenta[g]isoquinolin-7-yl]imidazole-4-carboxylate], the IC50 lay within 100 to 2000 nM.

Turning to `CC1(CNS(=O)(=O)c2c3c(cc4cnc(C5CC5)cc24)CC(C(=O)Nc2cccnc2)C3)COC1` (stereo not drawn) [Example 9, 3-cyclopropyl-5-[(3-methyloxetan-3-yl)methylsulfamoyl]-N-pyridin-3-yl-7,8-dihydro-6H-cyclopenta[g]isoquinoline-7-carboxamide], the IC50 lay within 100 to 2000 nM.

For the molecule `Cc1ccc(Oc2cncc(N[C@@H]3Cc4cc5cnc(C6CC6)cc5c(S(=O)(=O)NCC(C)(C)F)c4C3)c2)cn1` [Example 10, (7R)-3-cyclopropyl-N-(2-fluoro-2-methylpropyl)-7-[[5-(6-methylpyridin-3-yl)oxypyridin-3-yl]amino]-7,8-dihydro-6H-cyclopenta[g]isoquinoline-5-sulfonamide], the IC50 lay within 1 to 10 nM.

Consider `CC(C)(F)CNS(=O)(=O)c1c2c(cc3cnc(C4CC4)cc13)C[C@@H](Nc1ccc(C(N)=O)nc1)C2` [Example 11, 5-[[(7R)-3-cyclopropyl-5-[(2-fluoro-2-methylpropyl)sulfamoyl]-7,8-dihydro-6H-cyclopenta[g]isoquinolin-7-yl]amino]pyridine-2-carboxamide], for which the IC50 was in the range of 10 to 50 nM.

Consider `CC(C)(F)CNS(=O)(=O)c1c2c(cc3cnc(C4CC4)cc13)C[C@@H](Nc1ccc(CO)nc1)C2` [Example 12, (7R)-3-cyclopropyl-N-(2-fluoro-2-methylpropyl)-7-[[6-(hydroxymethyl)pyridin-3-yl]amino]-7,8-dihydro-6H-cyclopenta[g]isoquinoline-5-sulfonamide], for which the half-maximal inhibitory concentration (IC50) was 10 to 50 nM.

On to `Cn1nnc(-c2ccc(NC3Cc4cc5cnc(C6CC6)cc5c(S(=O)(=O)NCC5(F)COC5)c4C3)cn2)n1` (stereo not drawn) [Example 13, 3-cyclopropyl-N-[(3-fluorooxetan-3-yl)methyl]-7-[[6-(2-methyltetrazol-5-yl)pyridin-3-yl]amino]-7,8-dihydro-6H-cyclopenta[g]isoquinoline-5-sulfonamide], for which the IC50 was in the range of 10 to 50 nM.

In the case of `Cn1cc2c(NC3Cc4cc5cnc(C6CC6)cc5c(S(=O)(=O)NCC5(O)COC5)c4C3)cncc2n1` (stereo not drawn) [Example 14, 3-cyclopropyl-N-[(3-hydroxyoxetan-3-yl)methyl]-7-[(2-methylpyrazolo[3,4-c]pyridin-4-yl)amino]-7,8-dihydro-6H-cyclopenta[g]isoquinoline-5-sulfonamide], the IC50 lay in the range of 10 to 50 nM.

On to `CC(C)(F)CNS(=O)(=O)c1c2c(cc3cnc(C4CC4)cc13)C[C@@H](Nc1ccc(C(=O)O)nc1)C2` [Example 15, 5-[[(7R)-3-cyclopropyl-5-[(2-fluoro-2-methylpropyl)sulfamoyl]-7,8-dihydro-6H-cyclopenta[g]isoquinolin-7-yl]amino]pyridine-2-carboxylic acid], for which the IC50 fell in the range of 10 to 50 nM.

Take `COc1cc(Oc2cncc(N[C@@H]3Cc4cc5cnc(C6CC6)cc5c(S(=O)(=O)NCC(C)(C)F)c4C3)c2)ccn1` [Example 16, (7R)-3-cyclopropyl-N-(2-fluoro-2-methylpropyl)-7-[[5-(2-methoxypyridin-4-yl)oxypyridin-3-yl]amino]-7,8-dihydro-6H-cyclopenta[g]isoquinoline-5-sulfonamide]: the IC50 fell in the range of 50 to 100 nM.

As for `CC(O)CNS(=O)(=O)c1c2c(cc3cnc(C4CC4)cc13)CCC2` (stereo not drawn) [Example 17, 3-cyclopropyl-N-(2-hydroxypropyl)-7,8-dihydro-6H-cyclopenta[g]isoquinoline-5-sulfonamide], the IC50 lay within 100 to 2000 nM.

`CC(C)(F)CNS(=O)(=O)c1c2c(cc3cnc(C4CC4)cc13)CC(Nc1cncnc1Nc1cccnc1)C2` (stereo not drawn) [Example 18, 3-cyclopropyl-N-(2-fluoro-2-methylpropyl)-7-[[4-(pyridin-3-ylamino)pyrimidin-5-yl]amino]-7,8-dihydro-6H-cyclopenta[g]isoquinoline-5-sulfonamide]: the IC50 was 1 to 10 nM.

As for `CC(C)(F)CNS(=O)(=O)c1c2c(cc3cnc(C4CC4)cc13)CC(Nc1cncnc1NCC1CC1)C2` (stereo not drawn) [Example 19, 3-cyclopropyl-7-[[4-(cyclopropylmethylamino)pyrimidin-5-yl]amino]-N-(2-fluoro-2-methylpropyl)-7,8-dihydro-6H-cyclopenta[g]isoquinoline-5-sulfonamide], the IC50 lay in the range of 10 to 50 nM.

With `CC(C)(F)CNS(=O)(=O)c1c2c(cc3cnc(C4CC4)cc13)CC(Nc1nc3ccccc3[nH]1)C2` (stereo not drawn) [Example 20, 7-(1H-benzimidazol-2-ylamino)-3-cyclopropyl-N-(2-fluoro-2-methylpropyl)-7,8-dihydro-6H-cyclopenta[g]isoquinoline-5-sulfonamide], the IC50 was 10 to 50 nM.

In the case of `CC(C)CNS(=O)(=O)c1c2c(c(N)c3cnc(C4CC4)cc13)CCC2` [Example 21, 9-amino-3-cyclopropyl-N-(2-methylpropyl)-7,8-dihydro-6H-cyclopenta[g]isoquinoline-5-sulfonamide], the IC50 was in the range of 50 to 100 nM.

Consider `CC(=O)Nc1c2c(c(S(=O)(=O)NCC(C)C)c3cc(C4CC4)ncc13)CCC2` [Example 22, N-[3-cyclopropyl-5-(2-methylpropylsulfamoyl)-7,8-dihydro-6H-cyclopenta[g]isoquinolin-9-yl]acetamide], for which the IC50 was 100 to 2000 nM.

Consider `CC(C)(F)CNS(=O)(=O)c1c2c(cc3c(F)nc(C4CC4)cc13)CC(Nc1ccc(C(N)=O)nc1)C2` (stereo not drawn) [Example 23, 5-[[3-cyclopropyl-1-fluoro-5-[(2-fluoro-2-methyl-propyl)sulfamoyl]-7,8-dihydro-6H-cyclopenta[g]isoquinolin-7-yl]amino]pyridine-2-carboxamide], for which the IC50 was in the range of 10 to 50 nM.

Take `COC(=O)c1ccc(NC2Cc3cc4c(F)nc(C5CC5)cc4c(S(=O)(=O)NCC(C)(C)F)c3C2)cn1` (stereo not drawn) [Example 24, methyl 5-[[3-cyclopropyl-1-fluoro-5-[(2-fluoro-2-methyl-propyl)sulfamoyl]-7,8-dihydro-6H-cyclopenta[g]isoquinolin-7-yl]amino]pyridine-2-carboxylate]: the IC50 lay in the range of 10 to 50 nM.

On to `COc1nc(C2CC2)cc2c(S(=O)(=O)NCC(C)(C)F)c3c(cc12)CC(Nc1ccc(C2(O)COC2)nc1)C3` (stereo not drawn) [Example 26, 3-cyclopropyl-N-(2-fluoro-2-methylpropyl)-7-[[6-(3-hydroxyoxetan-3-yl)pyridin-3-yl]amino]-1-methoxy-7,8-dihydro-6H-cyclopenta[g]isoquinoline-5-sulfonamide], for which the IC50 was 100 to 2000 nM.

On to `CC(C)(F)CNS(=O)(=O)c1c2c(cc3cnc(C4CC4)cc13)CC(Nc1ccc(N3CC(C)(O)C3)nc1)C2` (stereo not drawn) [Example 27, 3-cyclopropyl-N-(2-fluoro-2-methylpropyl)-7-[[6-(3-hydroxy-3-methylazetidin-1-yl)pyridin-3-yl]amino]-7,8-dihydro-6H-cyclopenta[g]isoquinoline-5-sulfonamide], for which the IC50 lay in the range of 100 to 2000 nM.

`COc1ccc(NC2Cc3cc4cnc(C5CC5)cc4c(S(=O)(=O)NCC(C)(C)F)c3C2)nn1` (stereo not drawn) [Example 28, 3-cyclopropyl-N-(2-fluoro-2-methylpropyl)-7-[(6-methoxypyridazin-3-yl)amino]-7,8-dihydro-6H-cyclopenta[g]isoquinoline-5-sulfonamide]: the IC50 was in the range of 10 to 50 nM.
